Laboratory results published in patent publication US20230000876A1, “TREATING CANCERS WITH A CYCLIN-DEPENDENT KINASE INHIBITOR” (Nuvation Bio Inc., priority 2021, published 2023).

Columns and labels:
[1] = test system: 22Rv1 tumors; assay: 22Rv1 prostate tumor model (Example 3); type: in vivo, male Balb/c nude mice; details: for Tumor volume (mean ± SEM): 30 mg/kg PO QD
Protocol: The in vivo anti-tumor efficacy of the compound of formula (I) either alone or in combination with enzalutamide prostate tumor model on male Balb/c nude mice was evaluated. The cell line is derived from a xenograft that was serially propagated in mice after castration—induced regression and relapse of the parental, androgen-dependent CWR22 xenograft.
In the study, the compound of formula (I) was dosed orally (po) once daily (QD) and enzalutamide, when administered, was dosed orally once daily for 25 days, as shown in Table 8.
The 22Rv1 tumor cells were maintained in vitro in RPMI1640 medium supplemented with 10% heat inactivated fetal bovine serum at 37° C. in an atmosphere of 5% CO2 in air. The tumor cells were routinely subcultured twice weekly. The cells growing in an exponential growth phase were harvested and counted for tumor inoculation.
Each mouse was inoculated subcutaneously at the right flank with 22Rv1 tumor cells (5*10^6) with 50% Matrigel for tumor development. The treatments were started on day 7 after tumor inoculation when the average tumor volume reached 94 mm^3. A total of 48 mice were selected and assigned into 6 groups. The testing articles were administrated to the mice according to Table 8.
The major endpoint was to see if the tumor growth could be delayed or mice could be cured. Tumor size was measured twice weekly in two dimensions using a caliper, and the volume was expressed in mm^3 using the formula: V=0.5 a×b^2 where a and b are the long and short diameters of the tumor, respectively. The tumor sizes are then used for the calculation of T/C and TGI values.
(§1) The T/C value (in percent) is an indication of antitumor effectiveness; T and C are the mean volume of the treated and control groups, respectively, on a given day.
(§2) TGI was calculated for each group using the formula: TGI (%)=[1−(Ti−T0)/(Vi−V0)]×100; Ti is the average tumor volume of a treatment group on PG-Di, T0 is the average tumor volume of the treatment group on the day of treatment start, Vi is the average tumor volume of the vehicle control group on the same day with Ti, and V0 is the average tumor volume of the vehicle group on the day of treatment start.
All groups were taken down on PG-D24 and PG-D25 when the average tumor size of vehicle group reached 2305 mm^3.
Summary statistics, including mean and the standard error of the mean (SEM), are provided for the tumor volume of each group at each time point. For comparison among groups, a one-way ANOVA was performed. All the analysis were conducted using GraphPad Prism software. p<0.05 was considered to be statistically significant.

[2] = test system: tumor fragments from a mCRPC patient; assay: Enzalutamide-resistant patient-derived xenograft prostate model (ST2347 PDX); type: in vivo, male Balb/c nude mice; details: 30 mg/kg oral QD
[3] = test system: VCap prostate cancer; assay: Non-castrated VCap prostate cancer model; type: in vivo, male CB17/Scid mice; details: Group 2: Enzalutamide 20 mg/kg p.o. QD * 26 days
Protocol: Compound (I), enzalutamide, and abiraterone were tested in non-castrated VCap prostate cancer model in male CB17/Scid mice.
All treatment groups reduced mean tumor volume.

[4] = test system: H1975-luc; assay: CellTiter-Glo anti-proliferation assay, H1975-luc; type: cell-based
Protocol: (§3) The anti-proliferation effect of 2 compounds (the compound of formula (I) and temozolomide) in 7 CNS metastasis cell lines (MOLT-4-luc, Nalm-6-luc, NCI-H460-luc, ACHN-luc2, PC-9-luc, H1975-luc, and KM12-luc) was evaluated.
(§4) The plating of cells and compound treatments are shown below in the plate map (Table 12). One plate was needed for the test of 2 compounds (the compound of formula (I) and temozolomide) in one cell line. The compound of formula (I) was tested from 10 μM, 3-fold serial dilution. Temozolomide was tested from 100 μM, 3-fold serial dilution.
(§5) All the cell lines were maintained in culture conditions at 37° C. in an atmosphere with 5% CO2 in air. The tumor cells were routinely subcultured. The cells growing in an exponential growth phase were harvested and counted for plating.
(§6) Cells were counted by haemocytometer with Trypan blue staining. Next, 135 μL of cell suspension were plated into the assay plates according to the plate map and 135 μL of assay medium into the blank wells. The plates were incubated at 37° C., 5% CO2, 95% air and 100% relative humidity overnight.
(§7) 4.4.4 Compound Plate (10×) Preparation and Compound Treatment • 10× concentrate compound plate preparation: Add 198 μL of assay medium into each well of the V-bottom plate; then transfer 2 μL of the stock compound solution of each concentration from the stock plate. Add 2 μL of DMSO into the Blank and Control wells. Pipette up and down to mix well. This V-plate is designated as the 10× concentrate compound plate. • For day 0 plate, add 15 μL of the DMSO-medium into the Control wells. The final DMSO concentration was 0.1%. Then directly proceed to cell viability assay. • For assay plate, add 15 μL of the compound-medium of each well from the 10× concentrate compound plate into the cells in 96-well assay plate according to the plate map. Add 15 μL of the DMSO-medium into the Blank and Control wells. The final DMSO concentration was 0.1%. • Return the assay plate into incubator and incubate for 6 days.
(§8) The procedures were performed according to the Promega CellTiter-Glo Luminescent Cell Viability Assay Kit manual (Promega-G7573). • The CellTiter-Glo buffer was thawed and equilibrated to room temperature prior to use. • CellTiter-Glo Substrate was equilibrated to room temperature prior to use. • The entire liquid volume of CellTiter-Glo Buffer was transferred into the amber bottle containing CellTiter-Glo Substrate to reconstitute the lyophilized enzyme/substrate mixture. This forms the CellTiter-Glo Reagent. • The contents were mixed by gently vortexing to obtain a homogeneous solution. • The plate was equilibrated and its contents to room temperature for approximately 30 minutes. 75 μL (equal to the half volume of culture medium present in each well) CellTiter-Glo • Reagent was added in each well. Plates were covered with aluminum foil to protect from light. • The contents were mixed for 2 minutes on an orbital shaker to induce cell lysis. • The plate was incubated at room temperature for 20 minutes to stabilize luminescent signal. • Record luminescence on the 2104 EnVision plate reader.
(§9) Inhibition rate (IR) of the tested compounds was determined by the following formula: IR (%)=(1−(RLU compound−RLU day0)/(RLU control−RLU day0))*100%. The inhibitions of different dose of compound were calculated in Excel file, and then were used to plot inhibition curves and evaluate related parameters, such as Min (%), Max (%) and GI50. The data were interpreted by GraphPad Prism.

[5] = test system: ACHN-luc2; assay: CellTiter-Glo anti-proliferation assay, ACHN-luc2; type: cell-based
Protocol: as §3, §4, §5, §6, §7, §8, §9

[6] = test system: NCI-H460-luc; assay: CellTiter-Glo anti-proliferation assay, NCI-H460-luc; type: cell-based
Protocol: as §3, §4, §5, §6, §7, §8, §9

[7] = test system: KM12-luc; assay: CellTiter-Glo anti-proliferation assay, KM12-luc; type: cell-based
Protocol: as §3, §4, §5, §6, §7, §8, §9

[8] = test system: Nalm-6-luc; assay: CellTiter-Glo anti-proliferation assay, Nalm-6-luc; type: cell-based
Protocol: as §3, §4, §5, §6, §7, §8, §9

[9] = test system: U-87MG-luc orthotopic intracranial tumors; assay: U-87MG-luc glioblastoma orthotopic intracranial model, survival; type: in vivo, female BALB/c nude mice; details: 1 mg/kg PO*QD × 5/7 days (vehicle 37 days)
Protocol: U-87MG-luc cells were derived from U-87MG parental cells acquired from ATCC by stably introducing the gene that encodes the luciferase (luc) protein. The U-87MG-luc cells were cultured at 37° C. in an atmosphere of 5% CO2 in air. The tumor cells were routinely subcultured twice weekly. The cells growing in an exponential growth phase were harvested and counted for tumor inoculation.
3×10^5 U-87MG-luc tumor cells were micro-injected into the right lobe (caudate nucleus) of the brain of each mouse. A total of 94 mice were inoculated. Ten days after cell inoculation, bioluminescence were measured by Xenogen IVIS Lumina II machine, 70 mice were selected and randomly assigned into 7 groups based on bioluminescence intensity and bodyweight. The mice were dosed according to Table 25.

[10] = test system: PC-9-luc; assay: CellTiter-Glo anti-proliferation assay, PC-9-luc; type: cell-based
Protocol: as §3, §4, §5, §6, §7, §8, §9

[11] = test system: U-118MG xenograft tumors; assay: U-118MG glioma subcutaneous xenograft model; type: in vivo, female CB17 SCID mice; details: QD; for Tumor volume (mean ± SEM): 1 mg/kg PO
Protocol: The tumor cells were routinely subcultured twice weekly. The cells growing in an exponential growth phase were harvested and counted for tumor inoculation.
The treatments was started on day 7 after tumor inoculation when the average tumor volume reached 150 mm^3. 60 mice were selected and assigned into 6 groups. The testing articles were administrated to the mice according to Table 1.
Tumor size was measured twice weekly in two dimensions using a caliper, and the volume was expressed in mm^3 using the formula: V=0.5 a×b^2 where a and b are the long and short diameters of the tumor, respectively. The tumor sizes are then used for the calculation of T/C and TGI values.
as §1
as §2, with “PG-D28” for “PG-Di,”
All Groups were taken down on PG-D28, tumor, plasma and brain samples were collected.
For statistical analysis for difference among groups 2-6 and group 1, a one-way ANOVA was performed. All the analysis were conducted using GraphPad Prism software. p<0.05 was considered to be statistically significant.

[12] = test system: MOLT-4-luc; assay: CellTiter-Glo anti-proliferation assay, MOLT-4-luc; type: cell-based
Protocol: as §3, §4, §5, §6, §7, §8, §9

[13] = enzalutamide 30 mg/kg QD, PG-D24
[14] = 144 h, 6 days incubation, read-out: Absolute GI50
[15] = inhibition rate, 6 days, Compound (I) from 10 μM, temozolomide from 100 μM, 3-fold, 9 points
[16] = Group 6: Temozolomide 1 mg/kg PO, PG-D27

SMILES: CNC(=O)c1ccc(N2C(=S)N(c3ccc(C#N)c(C(F)(F)F)c3)C(=O)C2(C)C)cc1F [Enzalutamide, reference compound]
- Tumor volume (mean ± SEM) ([1]; day 0): 94 ± 4 mm^3
- Tumor volume (mean ± SEM) ([1]; day 3): 177 ± 13 mm^3
- Tumor volume (mean ± SEM) ([1]; day 7): 345 ± 23 mm^3
- Tumor volume (mean ± SEM) ([1]; day 10): 507 ± 53 mm^3
- Tumor volume (mean ± SEM) ([1]; day 14): 825 ± 65 mm^3
- Tumor volume (mean ± SEM) ([1]; day 17): 1115 ± 65 mm^3
- Tumor volume (mean ± SEM) ([1]; day 21): 1531 ± 143 mm^3
- Tumor volume (mean ± SEM) ([1]; day 24): 1814 ± 186 mm^3
- T/C [1, 13]: 78.69%
- TGI [1, 13]: 22.17%
- Antitumor activity over the course of the treatment [2]: minimal effect
- Tumor volume (mean ± SEM) ([3]; Day 0): 171.8 ± 6.1 mm^3
- Tumor volume (mean ± SEM) ([3]; Day 4): 287.4 ± 17^ mm^3
- Tumor volume (mean ± SEM) ([3]; Day 7): 352.2 ± 28.8 mm^3
- Tumor volume (mean ± SEM) ([3]; Day 11): 542.8 ± 50.7 mm^3
- Tumor volume (mean ± SEM) ([3]; Day 14): 662.7 ± 51.7 mm^3
- Tumor volume (mean ± SEM) ([3]; Day 18): 761.9 ± 60.9 mm^3
- Tumor volume (mean ± SEM) ([3]; Day 21): 891.2 ± 82.8 mm^3
- Tumor volume (mean ± SEM) ([3]; Day 25): 1005.9 ± 71.4 mm^3

SMILES: Cn1nnc2c(C(N)=O)ncn2c1=O [Temozolomide, reference compound]
- GI50 [4, 14]: > 100 µM
- Max (%) [4, 15]: 13.0%
- Min (%) [4, 15]: −0.3%
- GI50 ([5]; ACHN-luc2, 144 h, 6 days incubation, read-out: Absolute GI50): > 100 µM
- Max (%) [5, 15]: 20.0%
- Min (%) [5, 15]: 2.8%
- GI50 ([6]; NCI-H460-Luc, 144 h, 6 days incubation, read-out: Absolute GI50): > 100 µM
- Max (%) [6, 15]: 7.2%
- Min (%) [6, 15]: 4.8%
- GI50 ([7]; KM12-Luc, 144 h, 6 days incubation, read-out: Absolute GI50): > 100 µM
- Max (%) [7, 15]: 1.6%
- Min (%) [7, 15]: −12.1%
- GI50 [8, 14]: > 100 µM
- Max (%) [8, 15]: 22.9%
- Min (%) [8, 15]: 6.5%
- Median survival [9]: 44 days
- GI50 [10, 14]: > 100 µM
- Max (%) [10, 15]: 5.6%
- Min (%) [10, 15]: −13.1%
- Tumor volume (mean ± SEM) ([11]; day 0): 154 ± 12 mm^3
- Tumor volume (mean ± SEM) ([11]; day 3): 239 ± 18 mm^3
- Tumor volume (mean ± SEM) ([11]; day 7): 306 ± 17 mm^3
- Tumor volume (mean ± SEM) ([11]; day 10): 346 ± 22 mm^3
- Tumor volume (mean ± SEM) ([11]; day 14): 358 ± 22 mm^3
- Tumor volume (mean ± SEM) ([11]; day 17): 395 ± 30 mm^3
- Tumor volume (mean ± SEM) ([11]; day 21): 411 ± 31 mm^3
- Tumor volume (mean ± SEM) ([11]; day 24): 423 ± 35 mm^3
- Tumor volume (mean ± SEM) ([11]; day 28): 473 ± 44 mm^3
- T/C [11, 16]: 74.94%
- TGI [11, 16]: 33.24%
- Tumor Size [11, 16]: 473 ± 44 mm^3
- GI50 [12, 14]: > 100 µM
- Max (%) [12, 15]: 23.2%
- Min (%) [12, 15]: −2.2%
